Columns and labels:
B16 melanoma 4A5 cells = test: Theophylline-stimulated melanogenesis inhibition (melanin content); assay type: cell-based, murine; settings: Mus musculus, 72 h; for inhibition at 3 µM / inhibition at 10 µM / inhibition at 30 µM / inhibition at 100 µM: theophylline-stimulated B16 4A5 cells; for IC50: theophylline (1 mM)-stimulated B16 melanoma 4A5 cells
Method: (§1) The effects on theophylline-stimulated melanogenesis and viability of B16 melanoma 4A5 cells were examined according to previously described protocols. Briefly, murine B16 melanoma 4A5 cells were seeded into 48-well plates in DMEM. After 24 h of culture, a test compound and theophylline (1 mM) were added and incubated for 72 h. The melanin content and cell viability were then measured. IC50 values were determined graphically.
Inhibition (%) was calculated using the following formula, where A and B indicate the optical density of the vehicle- and test compound-treated groups, respectively, and C indicates cell viability (%) (see below): Inhibition (%) = [(A − B)/A]/(C/100) × 100.

[1] = Cell viability of B16 melanoma 4A5 cells; assay type: cell-based, murine; settings: mouse, B16 4A5 cells
Method: as §1

tyrosinase from mushroom = test: Mushroom tyrosinase activity; assay type: biochemical
Method: Tyrosinase activities using L-tyrosine or L-DOPA as a substrate were determined according to the protocols described previously. Briefly, samples, L-tyrosine (2.5 mM, or L-DOPA, 3.0 mM), mushroom tyrosinase (46 units/mL), and phosphate buffer were mixed in a 96-well plate and incubated at 25 °C. (L-tyrosine; 30 min, L-DOPA; 5 min). The absorbance was then measured at 492 nm.

Row | Structure (SMILES) | IC50 (B16 melanoma 4A5 cells) [µM] | Inhibition (%) of mushroom tyrosinase (tyrosinase from mushroom; Substrate: L-DOPA, 10 µM) [%] | Inhibition (%) of mushroom tyrosinase (tyrosinase from mushroom; Substrate: L-DOPA, 30 µM) [%] | Inhibition (%) of mushroom tyrosinase (tyrosinase from mushroom; Substrate: L-Tyrosine, 10 µM) [%] | Inhibition (%) of mushroom tyrosinase (tyrosinase from mushroom; Substrate: L-Tyrosine, 30 µM) [%] | Inhibition (%) of mushroom tyrosinase (tyrosinase from mushroom; Substrate: L-DOPA, 100 µM) [%] | Inhibition (%) of mushroom tyrosinase (tyrosinase from mushroom; Substrate: L-Tyrosine, 100 µM) [%] | inhibition at 3 µM (B16 melanoma 4A5 cells) [%] | inhibition at 10 µM (B16 melanoma 4A5 cells) [%] | inhibition at 30 µM (B16 melanoma 4A5 cells) [%] | inhibition at 100 µM (B16 melanoma 4A5 cells) [%] | viability at 72 h, 3 µM [1] [%] | viability at 72 h, 10 µM [1] [%] | viability at 72 h, 30 µM [1] [%] | viability at 72 h, 100 µM [1] [%]
1 | CCCCCCCCCCOC1=C(OCC(O)CO)[C@@H]([C@@H](O)CO)OC1=O (some centres unmarked) [compound 10, 2-O-decyl-3-O-(2,3-dihydroxypropyl)-AsA] | 13 | 0.4 ± 1.1 | 2.4 ± 2.9 | 1.3 ± 3.1 | 0.4 ± 1.7 | – | – | 3.7 ± 7.8 | 39.2 ± 4.1 | 78.1 ± 4.8 | 98 ± 3.7 | 98.6 | 85.9 | 73.5 | 27.9
2 | CCCCCCCCCCCCOC1=C(OCC(O)CO)C(=O)O[C@@H]1[C@@H](O)CO (some centres unmarked) [compound 26, 2-O-(2,3-dihydroxypropyl)-3-O-dodecyl-AsA] | 12.1 | −6.4 ± 3.1 | −6.6 ± 8.7 | −2.2 ± 6.4 | −0.5 ± 4.3 | – | – | 14.1 ± 8.5 | 46 ± 3 | 96.2 ± 2.8 | 89.6 ± 24.4 | 99.8 | 87.3 | 45.5 | 24.3
3 | CCCCCCCCCCCCCOC1=C(OCC(O)CO)C(=O)O[C@@H]1[C@@H](O)CO (some centres unmarked) [compound 27, 2-O-(2,3-dihydroxypropyl)-3-O-tridecyl-AsA] | 11.7 | −2.0 ± 3.3 | −3.2 ± 2.7 | −3.3 ± 8.1 | −5.4 ± 1.9 | – | – | 20.1 ± 5.7 | 44.2 ± 3.9 | 96.6 ± 3 | 113 ± 10.1 | 105 | 84.3 | 40.2 | 21
4 | CCCCCCCCCCCCCOC1=C(OCC(O)CO)[C@@H]([C@@H](O)CO)OC1=O (some centres unmarked) [compound 13, 3-O-(2,3-dihydroxypropyl)-2-O-tridecyl-AsA] | 11.3 | −4.7 ± 5.0 | −4.4 ± 1.8 | −4.7 ± 2.9 | −7.1 ± 1.7 | – | – | 0.1 ± 8.6 | 46 ± 7.9 | 97.1 ± 2.3 | 108 ± 9.1 | 96.3 | 87.2 | 63.7 | 23.5
5 | CCCCCCCOC1=C(OCC(O)CO)C(=O)O[C@@H]1[C@@H](O)CO (some centres unmarked) [compound 21, 2-O-(2,3-dihydroxypropyl)-3-O-heptyl-AsA] | > 100 | – | −10.0 ± 1.7 | – | −9.2 ± 2.1 | −11.3 ± 2.4 | −9.8 ± 3.9 | -6.3 ± 2.7 | 0.9 ± 8.2 | 21 ± 5 | 44.6 ± 6.2 | 97.9 | 92.7 | 92.7 | 86.3

More lines, main results first:

Row | IC50 (B16 melanoma 4A5 cells) [µM] | Inhibition (%) of mushroom tyrosinase (tyrosinase from mushroom; Substrate: L-DOPA, 10 µM) [%] | Inhibition (%) of mushroom tyrosinase (tyrosinase from mushroom; Substrate: L-DOPA, 30 µM) [%] | Inhibition (%) of mushroom tyrosinase (tyrosinase from mushroom; Substrate: L-Tyrosine, 10 µM) [%] | Inhibition (%) of mushroom tyrosinase (tyrosinase from mushroom; Substrate: L-Tyrosine, 30 µM) [%] | Inhibition (%) of mushroom tyrosinase (tyrosinase from mushroom; Substrate: L-DOPA, 100 µM) [%] | Inhibition (%) of mushroom tyrosinase (tyrosinase from mushroom; Substrate: L-Tyrosine, 100 µM) [%] | Structure (SMILES) | inhibition at 3 µM (B16 melanoma 4A5 cells) [%] | inhibition at 10 µM (B16 melanoma 4A5 cells) [%] | inhibition at 30 µM (B16 melanoma 4A5 cells) [%] | inhibition at 100 µM (B16 melanoma 4A5 cells) [%] | viability at 72 h, 3 µM [1] [%] | viability at 72 h, 10 µM [1] [%] | viability at 72 h, 30 µM [1] [%] | viability at 72 h, 100 µM [1] [%]
6 | 68.8 | – | 2.4 ± 1.1 | – | −0.3 ± 2.3 | 2.3 ± 2.7 | −0.6 ± 4.3 | CCCCCCCCOC1=C(OCC(O)CO)[C@@H]([C@@H](O)CO)OC1=O (some centres unmarked) [compound 8, 3-O-(2,3-dihydroxypropyl)-2-O-octyl-AsA] | 5.7 ± 6.9 | 10.6 ± 4.6 | 22.4 ± 4.4 | 64.1 ± 8.2 | 108 | 103 | 92.5 | 80
7 | 15.1 | −4.6 ± 1.4 | −5.1 ± 2.2 | 2.9 ± 3.9 | 1.0 ± 2.5 | – | – | CCCCCCCCCCCOC1=C(OCC(O)CO)[C@@H]([C@@H](O)CO)OC1=O (some centres unmarked) [compound 11, 3-O-(2,3-dihydroxypropyl)-2-O-undecyl-AsA] | 12.4 ± 3 | 35.4 ± 2.8 | 89.3 ± 1.5 | 100 ± 4.7 | 106 | 90.8 | 69 | 25.8
8 | > 100 | – | −13.1 ± 3.3 | – | −11.5 ± 1.6 | −4.5 ± 2.0 | −14.4 ± 1.8 | CCCCCCCCOC1=C(OCC(O)CO)C(=O)O[C@@H]1[C@@H](O)CO (some centres unmarked) [compound 22, 2-O-(2,3-dihydroxypropyl)-3-O-octyl-AsA] | -10.4 ± 6 | 1 ± 7 | 2.3 ± 5.9 | 34.8 ± 8.2 | 98.8 | 99.3 | 91.6 | 83
9 | 23.5 | 0.7 ± 3.8 | −5.3 ± 4.2 | −4.1 ± 5.3 | −3.1 ± 4.1 | – | – | CCCCCCCCCCOC1=C(OCC(O)CO)C(=O)O[C@@H]1[C@@H](O)CO (some centres unmarked) [compound 24, 3-O-decyl-2-O-(2,3-dihydroxypropyl)-AsA] | -5.8 ± 6 | 20.9 ± 5.4 | 64.3 ± 3.8 | 103 ± 2.4 | 92.5 | 87.1 | 68.5 | 34.3
10 | 72.9 | – | −4.1 ± 2.2 | – | −5.0 ± 3.1 | −1.5 ± 2.2 | −2.6 ± 2.4 | CCCCCCCCCOC1=C(OCC(O)CO)C(=O)O[C@@H]1[C@@H](O)CO (some centres unmarked) [compound 23, 2-O-(2,3-dihydroxypropyl)-3-O-nonyl-AsA] | -1.3 ± 9.4 | -2.6 ± 8 | 14.9 ± 5.6 | 77.1 ± 2.4 | 96.6 | 90.6 | 81.2 | 60.7
11 | 10.6 | −3.1 ± 3.3 | −4.6 ± 2.2 | −0.7 ± 4.5 | −7.1 ± 1.4 | – | – | CCCCCCCCCCCCOC1=C(OCC(O)CO)[C@@H]([C@@H](O)CO)OC1=O (some centres unmarked) [compound 12, 3-O-(2,3-dihydroxypropyl)-2-O-dodecyl-AsA] | 20.4 ± 10.2 | 50 ± 5.7 | 96 ± 2.9 | 97.9 ± 4.2 | 112 | 104 | 73.3 | 24.6
